Assay results: patent US10206944B2, “Chondroitin for use in medicine” (ALTERGON S.A., priority 2012, dated 2019)
“Also recorded” adds a separate entry of the source.

Key:
[1] = test system: mice or Sprague Dawley rats; assay: Acute toxicity study; type: in vivo, mouse and rat
Procedure: Acute toxicity study—The study was conducted on two animal models, the mouse and rat, to which chondroitin was administered orally (p.o.) or intravenously (i.v.). For each experiment the animals (mice or Sprague Dawley rats) were divided into 5 groups of 20 (10 males and 10 females) which received p.o. or i.v. chondroitin at doses ranging from 250 to 2,000 mg/Kg for oral administration and 20 to 160 mg/Kg for intravenous administration; the volume administered was 10 mL/Kg for p.o. administration and 5 mL/Kg for i.v. administration.
At the end of the treatment the animals were euthanized and a complete autopsy was performed.

[2] = test system: Sprague Dawley rats; assay: Subacute toxicity study, 30 days; type: in vivo, rat
Procedure: Subacute toxicity study—The study was performed on the rat by administering chondroitin orally (p.o.) and intramuscularly (i.m.). For each of the two studies the animals (Sprague Dawley rats) were divided into 4 groups formed by 15 males and 15 females; chondroitin at the concentration of 50, 100 and 200 mg/Kg respectively was administered to the first 3 groups, and the carrier alone to the fourth group; the administration volume was 10 mL/Kg for p.o. administration and 5 mL/Kg for i.m. administration. Daily administration continued for 30 days. The doses used represent up to 20 times the human therapeutic dose. The general state of health and behaviour of the treated animals were monitored daily, and weight variations, haematological status and urine were evaluated every 5 days. […] At the end of the study all animals were euthanized and an autopsy and histopathological analysis of the main organs (lungs, heart, liver, ovaries, uterus, testicles, kidneys and pituitary gland) were conducted. None of these evaluations indicated any significant differences between the animals treated with chondroitin and the control animals which received the carrier alone.

[3] = test system: rats (Sprague Dawley); assay: Chronic toxicity study, 26 weeks; type: in vivo; conditions: rat
Procedure: Chronic toxicity study—This study was conducted on rats (Sprague Dawley) treated daily for 26 weeks with chondroitin administered p.o. (by gavage) at doses ranging from 50 to 200 mg/Kg. The general state of health and behaviour of the treated animals were monitored daily, and weight variations, haematological status and urine were evaluated every 7 days. […] At the end of the study all animals were euthanized and an autopsy and histopathological analysis of the main organs (lungs, heart, liver, ovaries, uterus, testicles, kidneys, pituitary gland, lymph nodes and gastrointestinal tract) were conducted. None of these evaluations indicated any significant differences between the animals treated with chondroitin and the control animals which received the carrier alone.

[4] = test system: 5 strains of Salmonella typhimurium; assay: Ames' test; type: cell-based; conditions: up to 2.0 mg/plate, with and without metabolic activation
Procedure: The chondroitin mutagenicity studies were conducted on different mutagenicity and genotoxicity models in vitro and in vivo (Sirtori C., File CONDRAL®, Vol. IV—Reproductive Toxicity and Mutagenesis; Slater E. et al., Rapid detection of mutagens and carcinogens, Cancer Res. 1971, 31: 970-973).
In vitro test, Ames' test—The test was performed with and without metabolic activation on 5 strains of Salmonella typhimurium. Chondroitin was tested at concentrations of between 2.0 μg/plate and 2.0 mg/plate.

[5] = test system: Escherichia coli strain sensitive to the action of mutagenic substances; assay: DNA-repair test; type: cell-based; conditions: highest doses, with and without metabolic activation
Procedure: In vitro test, DNA-repair test—The DNA alteration test was conducted with a strain of Escherichia coli sensitive to the action of mutagenic substances. In the study, mitomycin C was used as positive control and penicillin G as negative control.

[6] = test system: Wistar rats; assay: Study of fertility and reproductive capacity; type: in vivo, rat
Procedure: Study of fertility and reproductive capacity—The toxicology study of the possible effects of chondroitin on male fertility and female reproductive capacity was conducted on 200 Wistar rats (160 females and 40 males), randomised into four groups, each consisting of 40 females and 10 males, treated with 0, 50, 100 or 200 mg/Kg of chondroitin. Each group of female rats was divided in turn into two sub-groups of 20 animals; the first group received the product daily from the 14th day before the start of the mating period until the 19th day of gestation, and the second received it until the 21st day after the birth. All the males were treated with chondroitin for 60 days before mating and throughout the gestation period of the females. The protocol used follows the guidelines of Directive EEC 85/571.

[7] = test system: volunteers suffering from dry eye; assay: Ophthalmic eyedrops in volunteers suffering from dry eye; type: in vivo, human
Procedure: Two ophthalmic preparations were compared: a conventional one based on hyaluronic acid and one based on chondroitin, both at the concentration of 3% w/v in NaCl saline solution at pH 7.4. The eyedrops were prepared in single-dose packaging sterilised in the autoclave. […] The volunteers, of both sexes, aged between 45 and 60 years, were randomised into two groups of 15, and treated with the two types of eyedrops. Under medical control the inflammatory state of the corneal surface was evaluated at the beginning and end of the treatment, and the evaluations of the treated patients relating to tolerability, duration of the wetting effect, and visual alteration after application, were recorded. A scale of 1 to 5 was used for the clinical evaluations and the patients' evaluations, where 5 represents optimum resolution of the pathological condition and its sequelae. […]

## chondroitin
[1]; acute, single dose i.v., mouse and rat
  LD50: > 160 mg/kg
[1]; examined every 24 h for 40 days, up to 2,000 mg/Kg p.o., 160 mg/Kg i.v.
  signs of toxicity or mortality: no signs of toxicity or mortality were observed
[2]; rat, 50, 100 and 200 mg/Kg p.o. and i.m., 30 days
  subacute toxicity, conclusion: non-toxic at the doses used
[2]; rat, p.o. and i.m., daily for 30 days
  No toxicity (dose), subacute 30 days: No toxicity >200 mg/kg/day p.o. and i.m.
[3]; 50 to 200 mg/Kg p.o., 26 weeks
  chronic toxicity, conclusion: non-toxic at the doses used
[3]; p.o., daily for 26 weeks
  No toxicity (dose), chronic 26 weeks: No toxicity >200 mg/kg/day p.o.
[4]
  point-reverse mutation (Ames' test): do not induce a specific point-reverse mutation; also recorded: Up to 2.0 mg/plate: no point-reverse mutation
[5]
  interaction with / alteration of DNA (DNA-repair test): does not interact and does not alter the DNA; also recorded: Even at higher doses it does not interact and does not alter
[6]; daily oral administration for 60 days, up to 200 mg/Kg
  effect on fertility of male rats: no effect on the fertility of male rats; also recorded: the dose of 200 mg/Kg, has no effect on the fertility of male
[6]; daily up to 200 mg/Kg, 15 days before mating to 21st day of lactation
  effect on reproductive capacity of females: no effect on the reproductive capacity of females; also recorded: no effect on the reproductive capacity of the females
[7]; 0 days, 3% w/v eyedrops, scale of 1 to 5, 5 optimum
  Doctor: corneal inflammation: 1.1 ± 0.2
[7]; 10 days, scale of 1 to 5
  Patient: absence of visual alteration: 4.6 ± 0.2
  Patient: tolerability: 4.7 ± 0.2
  Patient: wetting effect: 4.8 ± 0.3
[7]; 20 days, scale of 1 to 5
  Patient: absence of visual alteration: 4.7 ± 0.1
  Patient: tolerability: 4.5 ± 0.5
  Patient: wetting effect: 4.6 ± 0.2
[7]; 30 days, 3% w/v eyedrops 4 times a day, scale of 1 to 5
  Doctor: corneal inflammation: 4.2 ± 0.3
[7]; 30 days, scale of 1 to 5
  Patient: absence of visual alteration: 4.8 ± 0.1
  Patient: tolerability: 4.8 ± 0.1
  Patient: wetting effect: 4.9 ± 0.1
